Measured values: patent US8592175B2, “Nitroreductase enzymatic substrates” (bioMérieux, S.A., priority 2009, dated 2013)

Tests used:
Assay in all cases: Color, fluorescence and growth of colonies on Columbia medium with nitroreductase substrate
Format in all cases: cell-based
[1] = system: Pseudomonas aeruginosa NCTC 10 662; design: key to Growth: NG: no growth; 0.5: low growth; 1: moderate growth; 2: good growth; key to Fluo.: fluorescence of the colonies / Col.: color of the colonies: —: no color/fluorescence; conditions: 40 mg substrate in 400 ml Columbia medium, 24 hours at 37° C.; for Col.: color of the colonies: examined visually
Experimental: (§1) 40 mg of each of the substrates were dissolved in 4 ml of dimethylsulfoxide and added to 400 ml of previously autoclaved Columbia medium. The 5 media were distributed in Petri dishes 90 mm in diameter at the rate of 20 ml per dish. Seventeen strains of microorganisms obtained from collections and belonging to various species of bacteria and yeasts are inoculated as spots of about 10 000 colony forming units. The media are incubated for 24 hours at 37° C. and then the colonies formed are examined visually and under a UV lamp at 365 nm.

[2] = system: Candida albicans ATCC 90 028; design: key to Growth: NG: no growth; 0.5: low growth; 1: moderate growth; 2: good growth; key to Fluo.: fluorescence of the colonies / Col.: color of the colonies: —: no color/fluorescence; conditions: 40 mg substrate in 400 ml Columbia medium, 24 hours at 37° C.; for Col.: color of the colonies: examined visually
Experimental: as §1

[3] = system: Enterococcus faecium NCTC 7 171; design: key to Growth: NG: no growth; 0.5: low growth; 1: moderate growth; 2: good growth; key to Fluo.: fluorescence of the colonies / Col.: color of the colonies: —: no color/fluorescence; conditions: 40 mg substrate in 400 ml Columbia medium, 24 hours at 37° C.
Experimental: as §1

[4] = system: Bacillus subtilis NCTC 9 372; design: key to Growth: NG: no growth; 0.5: low growth; 1: moderate growth; 2: good growth; key to Fluo.: fluorescence of the colonies / Col.: color of the colonies: —: no color/fluorescence; conditions: 40 mg substrate in 400 ml Columbia medium, 24 hours at 37° C.; for Col.: color of the colonies: examined visually
Experimental: as §1

[5] = system: Candida glabrata NCPF 3 943; design: key to Growth: NG: no growth; 0.5: low growth; 1: moderate growth; 2: good growth; key to Fluo.: fluorescence of the colonies / Col.: color of the colonies: —: no color/fluorescence; conditions: 40 mg substrate in 400 ml Columbia medium, 24 hours at 37° C.; for Col.: color of the colonies: examined visually
Experimental: as §1

[6] = system: Staphylococcus epidermidis NCTC 11 047; design: key to Growth: NG: no growth; 0.5: low growth; 1: moderate growth; 2: good growth; key to Fluo.: fluorescence of the colonies / Col.: color of the colonies: —: no color/fluorescence; conditions: 40 mg substrate in 400 ml Columbia medium, 24 hours at 37° C.; for Col.: color of the colonies: examined visually
Experimental: as §1

[7] = system: Salmonella typhimurium NCTC 74; design: key to Growth: NG: no growth; 0.5: low growth; 1: moderate growth; 2: good growth; key to Fluo.: fluorescence of the colonies / Col.: color of the colonies: —: no color/fluorescence; conditions: 40 mg substrate in 400 ml Columbia medium, 24 hours at 37° C.
Experimental: as §1

[8] = system: Providencia rettgeri NCTC 7 475; design: key to Growth: NG: no growth; 0.5: low growth; 1: moderate growth; 2: good growth; key to Fluo.: fluorescence of the colonies / Col.: color of the colonies: —: no color/fluorescence; conditions: 40 mg substrate in 400 ml Columbia medium, 24 hours at 37° C.; for Col.: color of the colonies: examined visually
Experimental: as §1

[9] = system: Streptococcus pyogenes NCTC 8 306; design: key to Growth: NG: no growth; 0.5: low growth; 1: moderate growth; 2: good growth; key to Fluo.: fluorescence of the colonies / Col.: color of the colonies: —: no color/fluorescence; conditions: 40 mg substrate in 400 ml Columbia medium, 24 hours at 37° C.; for Col.: color of the colonies: examined visually
Experimental: as §1

[10] = system: Yersinia enterocolitica NCTC 11 176; design: key to Growth: NG: no growth; 0.5: low growth; 1: moderate growth; 2: good growth; key to Fluo.: fluorescence of the colonies / Col.: color of the colonies: —: no color/fluorescence; conditions: 40 mg substrate in 400 ml Columbia medium, 24 hours at 37° C.; for Col.: color of the colonies: examined visually
Experimental: as §1

[11] = system: Listeria monocytogenes NCTC 11 994; design: key to Growth: NG: no growth; 0.5: low growth; 1: moderate growth; 2: good growth; key to Fluo.: fluorescence of the colonies / Col.: color of the colonies: —: no color/fluorescence; conditions: 40 mg substrate in 400 ml Columbia medium, 24 hours at 37° C.
Experimental: as §1

[12] = system: Enterococcus faecalis NCTC 775; design: key to Growth: NG: no growth; 0.5: low growth; 1: moderate growth; 2: good growth; key to Fluo.: fluorescence of the colonies / Col.: color of the colonies: —: no color/fluorescence; conditions: 40 mg substrate in 400 ml Columbia medium, 24 hours at 37° C.
Experimental: as §1

[13] = system: Staphylococcus aureus NCTC 11 939; design: key to Growth: NG: no growth; 0.5: low growth; 1: moderate growth; 2: good growth; key to Fluo.: fluorescence of the colonies / Col.: color of the colonies: —: no color/fluorescence; conditions: 40 mg substrate in 400 ml Columbia medium, 24 hours at 37° C.; for Col.: color of the colonies: examined visually
Experimental: as §1

[14] = system: Staphylococcus aureus NCTC 6 571; design: key to Growth: NG: no growth; 0.5: low growth; 1: moderate growth; 2: good growth; key to Fluo.: fluorescence of the colonies / Col.: color of the colonies: —: no color/fluorescence; conditions: 40 mg substrate in 400 ml Columbia medium, 24 hours at 37° C.; for Col.: color of the colonies: examined visually
Experimental: as §1

[15] = system: Serratia marcescens NCTC 10 211; design: key to Growth: NG: no growth; 0.5: low growth; 1: moderate growth; 2: good growth; key to Col.: color of the colonies: —: no color/fluorescence; conditions: 40 mg substrate in 400 ml Columbia medium, 24 hours at 37° C.
Experimental: as §1

[16] = system: Escherichia coli NCTC 10 418; design: key to Growth: NG: no growth; 0.5: low growth; 1: moderate growth; 2: good growth; key to Col.: color of the colonies: —: no color/fluorescence; conditions: 40 mg substrate in 400 ml Columbia medium, 24 hours at 37° C.
Experimental: as §1

[17] = system: Enterobacter cloacae NCTC 11 936; design: key to Growth: NG: no growth; 0.5: low growth; 1: moderate growth; 2: good growth; key to Col.: color of the colonies: —: no color/fluorescence; conditions: 40 mg substrate in 400 ml Columbia medium, 24 hours at 37° C.; for Col.: color of the colonies: examined visually
Experimental: as §1

Molecule: 2-(4′-nitrophenyl)butadienyl-N-methylquinolinium iodide [2NPBMQ^+I]
- Growth [1]: 2
- Col.: color of the colonies [1]: Orange
- Growth [2]: NG
- Col.: color of the colonies [2]: —
- Growth [3]: 1
- Growth [4]: 0.5
- Col.: color of the colonies [4]: —
- Growth [5]: NG
- Col.: color of the colonies [5]: —
- Growth [6]: 1
- Col.: color of the colonies [6]: —
- Growth [7]: 1
- Growth [8]: 2
- Col.: color of the colonies [8]: Orange
- Growth [9]: 0.5
- Col.: color of the colonies [9]: —
- Growth [10]: 1
- Growth [11]: 1
- Growth [12]: 1
- Growth [13]: NG
- Col.: color of the colonies [13]: —
- Growth [14]: NG
- Col.: color of the colonies [14]: —
- Growth [15]: 2
- Growth [16]: 2
- Growth [17]: 2
- Col.: color of the colonies [17]: Orange

Molecule: C[n+]1c(C=Cc2ccc([N+](=O)[O-])cc2)ccc2ccccc21.[I-] [2NSMQ^+I, 2-(4′-nitrostyryl)-N-methylquinolinium iodide]
- Growth [1]: 2
- Growth [2]: 0.5
- Col.: color of the colonies [2]: —
- Growth [3]: 1
- Growth [4]: 1
- Growth [5]: NG
- Col.: color of the colonies [5]: —
- Growth [6]: 0.5
- Col.: color of the colonies [6]: —
- Growth [7]: 2
- Growth [8]: 2
- Col.: color of the colonies [8]: Rust
- Growth [9]: 0.5
- Growth [10]: 2
- Col.: color of the colonies [10]: Rust
- Growth [11]: 1
- Growth [12]: 1
- Growth [13]: NG
- Col.: color of the colonies [13]: —
- Growth [14]: NG
- Col.: color of the colonies [14]: —
- Growth [15]: 2
- Growth [16]: 2
- Growth [17]: 2

Molecule: O=[N+]([O-])c1ccc(C=Cc2ccc3ccccc3n2)cc1 [2NSQ, 2-(4′-nitrostyryl)quinoline]
- Growth [1]: 2
- Fluo.: fluorescence of the colonies ([1]; UV lamp at 365 nm): —
- Col.: color of the colonies [1]: —
- Growth [2]: 0.5
- Fluo.: fluorescence of the colonies ([2]; UV lamp at 365 nm): —
- Col.: color of the colonies [2]: —
- Growth [3]: 1
- Fluo.: fluorescence of the colonies ([3]; UV lamp at 365 nm): —
- Col.: color of the colonies ([3]; examined visually): —
- Growth [4]: 1
- Fluo.: fluorescence of the colonies ([4]; UV lamp at 365 nm): —
- Col.: color of the colonies [4]: —
- Growth [5]: 1
- Fluo.: fluorescence of the colonies ([5]; UV lamp at 365 nm): —
- Col.: color of the colonies [5]: —
- Growth [6]: 1
- Fluo.: fluorescence of the colonies ([6]; UV lamp at 365 nm): —
- Col.: color of the colonies [6]: —
- Growth [7]: 2
- Fluo.: fluorescence of the colonies ([7]; UV lamp at 365 nm): —
- Col.: color of the colonies ([7]; examined visually): —
- Growth [8]: 2
- Fluo.: fluorescence of the colonies ([8]; UV lamp at 365 nm): —
- Col.: color of the colonies [8]: —
- Growth [9]: 1
- Fluo.: fluorescence of the colonies ([9]; UV lamp at 365 nm): —
- Col.: color of the colonies [9]: —
- Growth [10]: 2
- Fluo.: fluorescence of the colonies ([10]; UV lamp at 365 nm): —
- Col.: color of the colonies [10]: —
- Growth [11]: 1
- Fluo.: fluorescence of the colonies ([11]; UV lamp at 365 nm): —
- Col.: color of the colonies ([11]; examined visually): —
- Growth [12]: 1
- Fluo.: fluorescence of the colonies ([12]; UV lamp at 365 nm): —
- Col.: color of the colonies ([12]; examined visually): —
- Growth [13]: 1
- Fluo.: fluorescence of the colonies ([13]; UV lamp at 365 nm): —
- Col.: color of the colonies [13]: —
- Growth [14]: 1
- Fluo.: fluorescence of the colonies ([14]; UV lamp at 365 nm): —
- Col.: color of the colonies [14]: —
- Growth [15]: 2
- Col.: color of the colonies ([15]; examined visually): —
- Growth [16]: 2
- Col.: color of the colonies ([16]; examined visually): —
- Growth [17]: 2
- Col.: color of the colonies [17]: —
